From patent US5710151A, “Method of treating urinary bladder dysfunctions” (priority 1996, dated 1998)
Where a name gives a salt, the structure may show the parent alone.

Biological target: muscarinic receptors
Experiment: inhibition of binding of 3H-oxotremorine-M to muscarinic receptors
Settings: 3 nM 3H-oxotremorine-M, rat cerebral cortical membranes, pH 7.4, 15 min, 25° C.; read-out: Inhibition of ^3 H-Oxo
Procedure: The affinity of the compounds for the muscarinic receptors was determined using the non-selective agonist ligand, ^3 H-oxotremorine-M. Birdsdall N. J. M., Hulme E. C., and Burgen A. S. V. "The Character of Muscarinic Receptors in Different Regions of the Rat Brain", 207 Proc. Roy. Soc. 1 (London, Series B, 1980). Each compound was tested to determine the affinity of the compound for the muscarinic receptors using the following procedure.
For in vitro binding, male Sprague-Dawley (Harlan Sprague-Dawley, Indianapolis, Ind.) rats weighing from about 100 to about 150 grams each were sacrificed by decapitation. The brains were quickly removed and the cerebral cortex were dissected from the brain. The cerebral cortex tissue was homogenized in 10 volumes of 0.32M sucrose and […] at about 1000×g. The supernatant was centrifuged at about 12,000×g for about 10 minutes and the resulting pellet was resuspended in 20 mM tris-Cl, pH 7.4. The resuspended pellet was centrifuged again for about 10 minutes at about 50,000×g. The resulting homogenate was preincubated for about 10 minutes at about 25° C. and centrifuged again for about 10 minutes at about 50,000×g. The pellet was resuspended at 1 gram of pellet per 3 ml of buffer and frozen at about -80° C. until used.
The inhibition of binding of ^3 H-oxotremorine-M to muscarinic receptors was determined by mixing the compound of the Example, 3 nM ^3 H-oxotremorine-M (about 87 Ci/mmoles, New England Nuclear, Boston Mass.), and cerebral cortical membranes equivalent to about 10 mg wet weight, which is about 100 μg of cortical membrane protein, in about 1 ml total volume of […] tris-Cl buffer, pH 7.4, containing 1 mM MnCl2. The aforementioned homogenates mixture was incubated for about 15 minutes at about 25° C. and then the homogenates were filtered through glass filters (Whatman, GF/C) with vacuum. The filters were washed 3 times with about 2 ml of cold tris-Cl buffer, and placed in scintillation vials containing about 10 ml of scintillation fluid (Ready Protein+, Beckman, Fullerton, Calif.). Radioactivity trapped on the filters was determined by liquid scintillation spectrometry. Nonspecific binding was determined using 1 μM atropine. The concentration of compound required to inhibit specific binding 50% (IC50) was determined using standardized computer assisted calculations (DeLean, A. et al. Am. J. Physiol., 235, (1978)).

Row | SMILES | IC50 [nM]
1 | CC(C)CCCSc1nsnc1[C@@H]1CN2CCC[C@@H]1C2 (relative stereo) [Compound 76, Exo-6-(3-isohexylthio-1,2,5-thiadiazol-4-yl)-1-azabicyclo[3.2.1]octane oxalate] | 7.7
2 | CC(C)CCSc1nsnc1[C@@H]1CN2CCC[C@@H]1C2 (relative stereo) [Compound 77, Exo-6-(3-isopentylthio-1,2,5-thiadiazol-4-yl)-1-azabicyclo[3.2.1]octane] | 2.7
3 | CCCSc1nsnc1[C@@H]1CN2CCC[C@@H]1C2 [Compound 114, (5S,6S)-6-(3-propylthio-1,2,5-thiadiazol-4-yl)-1-azabicyclo[3.2.1]octane (-) D-tartrate] | 0.45
4 | CCCCCCSc1nsnc1[C@@H]1CN2CCC[C@@H]1C2 (relative stereo) [Compound 29, Exo-6-(3-hexylthio-1,2,5-thiadiazol-4-yl)-1-azabicyclo[3.2.1]octane oxalate] | 1.2
5 | Cc1nnc(SCCCCSc2nsnc2C2CN3CCC2CC3)s1 (centres unmarked) [Compound 107, oxalate] | 1
6 | CSc1nsnc1[C@@H]1CN2CCC[C@@H]1C2 (relative stereo) [Compound 74, Exo-6-(3-methylthio-1,2,5-thiadiazol-4-yl)-1-azabicyclo[3.2.1]octane oxalate] | 1.4
7 | CCCSc1nsnc1C1CN2CCC1CC2 (centres unmarked) [Compound 53, 3-(3-Propylthio-1,2,5-thiadiazol-4-yl)-1-azabicyclo[2.2.2]octane oxalate] | 0.9
8 | c1csc(CCCSc2nsnc2C2CN3CCC2CC3)c1 (centres unmarked) [Compound 104, 3-(3-(3-(2-Thienyl)propylthio)-1,2,5-thiadiazol-4-yl)-1-azabicyclo[2.2.2]octane fumarate] | 2.6
9 | CCCCSc1nsnc1[C@H]1CN2CCC[C@H]1C2 [Compound 112, (5R,6R)-6-(3-butylthio-1,2,5-thiadiazol-4-yl)-1-azabicyclo[3.2.1]octane (-) D-tartrate] | 0.6
10 | CCCCOc1nsnc1[C@@H]1CN2CCC[C@@H]1C2 (relative stereo) [Compound 120, Exo-6-(3-butoxy-1,2,5-thiadiazol-4-yl)-1-azabicyclo[3.2.1]octane oxalate] | 0.9
11 | CSc1nsnc1C1CN2CCC1CC2 (centres unmarked) [Compound 131, 3-(3-Methylthio-1,2,5-thiadiazol-4-yl)-1-azabicyclo[2.2.2]octane oxalate] | 2.8
12 | c1ccc(OCCSc2nsnc2C2CN3CCC2CC3)cc1 (centres unmarked) [Compound 102, 3-(3-(2-Phenoxyethylthio)-1,2,5-thiadiazol-4-yl)-1-azabicyclo[2.2.2]octane fumarate] | 4.5
13 | CCCSc1nsnc1[C@H]1CN2CCC[C@H]1C2 [Compound 113, (5R,6R)-6-(3-propylthio-1,2,5-thiadiazol-4-yl)-1-azabicyclo[3.2.1]octane (+) L-tartrate] | 0.89
14 | CCSc1nsnc1[C@@H]1CN2CCC[C@@H]1C2 (relative stereo) [Compound 32, Exo-6-(3-ethylthio-1,2,5-thiadiazol-4-yl)-1-azabicyclo[3.2.1]octane oxalate] | 1.3
15 | CCCCSc1nsnc1[C@@H]1CN2CCC[C@@H]1C2 (relative stereo) [Compound 30, Exo-6-(3-butylthio-1,2,5-thiadiazol-4-yl)-1-azabicyclo[3.2.1]octane oxalate] | 0.4
16 | CCCCOc1nsnc1C1CN2CCC1CC2 (centres unmarked) [Compound 46, 3-(3-Butoxy-1,2,5-thiadiazol-4-yl)-1-azabicyclo[2.2.2]octane oxalate] | 1.6

Row | SMILES | IC50 [nM]
17 | CCCCSc1nsnc1C1CN2CCC1CC2 (centres unmarked) [Compound 13, 3-(3-Butylthio-1,2,5-thiadiazol-4-yl)-1-azabicyclo[2.2.2]octane fumarate] | 1.9
18 | FC(F)(F)CCCSc1nsnc1[C@@H]1CN2CCC[C@@H]1C2 [Compound 130, (5S,6S)-6-(3-(4,4,4-trifluoro-1-butylthio)-1,2,5-thiadiazol-4-yl)-1-azabicyclo[3.2.1]octane oxalate] | 1.8
19 | CCCCSc1nsnc1C1CN2CCC1CC2 (single isomer, unassigned) [Compound 56, (+) 3-(3-Butylthio-1,2,5-thiadiazol-4-yl)-1-azabicyclo[2.2.2]octane (-)D-tartrate] | 0.4
20 | N#CCSc1nsnc1C1CN2CCC1CC2 (centres unmarked) [Compound 103, 3-(3-Cyanomethylthio-1,2,5-thiadiazol-4-yl)-1-azabicyclo[2.2.2]octane oxalate] | 2.7
21 | CC(C)CCCSc1nsnc1[C@H]1CN2CCC[C@H]1C2 [Compound 157, (5R,6R)-6-(3-isohexylthio-1,2,5-thiadiazol-4-yl)-1-azabicyclo[3.2.1]octane (+) L-tartrate] | 10
22 | N#Cc1ccc(CSc2nsnc2[C@@H]2CN3CCC[C@@H]2C3)cc1 (relative stereo) [Compound 82, Exo-6-(3-(4-cyanobenzylthio)-1,2,5-thiadiazol-4-yl)-1-azabicyclo[3.2.1]octane oxalate] | 1.3
23 | CCSc1nsnc1C1CN2CCC1CC2 (centres unmarked) [Compound 52, 3-(3-Ethylthio-1,2,5-thiadiazol-4-yl)-1-azabicyclo[2.2.2]octane oxalate] | 1.8
24 | CCCSc1nsnc1[C@@H]1CN2CCC[C@@H]1C2 (relative stereo) [Compound 58, Exo-6-(3-propylthio-1,2,5-thiadiazol-4-yl)-1-azabicyclo[3.2.1]octane oxalate] | 0.8
25 | Cn1nnnc1SCCCCSc1nsnc1C1CN2CCC1CC2 (centres unmarked) [Compound 106, 3-(3-(1-Methyltetrazol-5-ylthio)butylthio-1,2,5-thiadiazol-4-yl)-1-azabicylo[2.2.2]octane oxalate] | 2.8
26 | CC(C)CCCSc1nsnc1[C@@H]1CN2CCC[C@@H]1C2 [Compound 158, (5S,6S)-6-(3-isohexylthio-1,2,5-thiadiazol-4-yl)-1-azabicyclo[3.2.1]octane oxalate] | 10
27 | CCCCCOc1nsnc1[C@@H]1CN2CCC[C@@H]1C2 (relative stereo) [Compound 59, Exo-6-(3-pentyloxy-1,2,5-thiadiazol-4-yl)-1-azabicyclo[3.2.1]octane oxalate] | 1
28 | FC(F)(F)CCCSc1nsnc1[C@H]1CN2CCC[C@H]1C2 [Compound 167, (5R,6R)-6-(3-(4,4,4-trifluorobutylthio)-1,2,5-thiadiazol-4-yl)-1-azabicyclo[3.2.1]octane oxalate] | 0.76
29 | CCOc1nsnc1[C@@H]1CN2CCC[C@@H]1C2 (relative stereo) [Compound 19, Exo-6-(3-ethoxy-1,2,5-thiadiazol-4-yl)-1-azabicyclo[3.2.1]octane oxalate] | 1.2
30 | CCCCSc1nsnc1[C@@H]1CN2CCC[C@@H]1C2 [Compound 111, (5S,6S)-6-(3-butylthio-1,2,5-thiadiazol-4-yl)-1-azabicyclo[3.2.1]octane (+) L-tartrate] | 1
31 | c1ccc(OCCSc2nsnc2[C@@H]2CN3CCC[C@@H]2C3)cc1 (relative stereo) [Compound 133, Exo-6-(3-(2-phenoxyethylthio)-1,2,5-thiadiazol-4-yl)-1-azabicyclo[3.2.1]octane oxalate] | 1.3
32 | CCCCCSc1nsnc1[C@@H]1CN2CCC[C@@H]1C2 (relative stereo) [Compound 31, Exo-6-(3-pentylthio-1,2,5-thiadiazol-4-yl)-1-azabicyclo[3.2.1]octane oxalate] | 1.8
